{"source": "patent US20090304694A1", "about": "“Ang2 and Vegf Inhibitor Combinations” (AMGEN INC., priority 2006, published 2009)", "test_system": "Colo205 colorectal cancer cell xenografts", "experiment": "Colo205 xenograft tumor volume, 2xCon4(C) (2.8 μg) and Avastin™ (10 μg) (Example 7)", "assay_type": "in vivo, female athymic nude mice (CD1 Nu/Nu)", "details": "Avastin™ 10 μg IP twice per week; 2xCon4(C) 2.8 μg sc twice per week; day 14 to day 42", "procedure": "Xenografts of Colo205 cells injected into female athymic nude mice were treated with 2xCon4(C) alone, Avastin™, or a combination of the two as described below.\nTumors were induced by injecting Colo205 cells subcutaneously into female athymic nude mice (CD1 Nu/Nu), 8-10 weeks old. All of the mice were obtained from Charles River Laboratories (Raleigh, N.C.). Cells were harvested from subconfluent cultures using trypsin/EDTA. The cells were greater than 95% viable by […] exclusion. 2×10^6 cells in 0.2 ml were injected subcutaneously into the right flank of each mouse.\nOn day 14 after injection the tumors averaged 250 mm^3, and the mice were divided at random into four groups of 10 mice each. Group 1 received IgG1 at a dose of 10 μg and Fc fragment control at a dose of 2.8 μg and served as a negative control. Group 2 received Avastin™ at a dose of 10 μg and Fc fragment control at 2.8 μg. Group 3 received 2xCon4(C) at a dose of 2.8 μg and human IgG1 at a dose of 10 μg. […]\nThe experiment was performed “blind” in accordance with the Cancer Pharmacology Blinded Study Guidelines. Tumors were measured and body weights were determined twice each week. Tumors were measured with an electronic digital caliper. Tumor volumes were calculated as the length×width×height measurements and expressed in mm^3.\nThe data were analyzed by repeated measures ANOVA for tumor volumes over time using STATVIEW v. […]", "data": [{"substance": "Avastin™: recombinant humanized monoclonal antibody that binds directly to VEGF, sold by Genentech", "values": [{"measurement": "reduction / inhibition of tumor growth compared to the control", "value": 18, "unit": "%"}]}]}
